For assay [1], the target named is T1, human recombinant β2 adrenoceptor (Homo sapiens, UniProt P07550).
T1 construct: expressed in transfected cells
As to the kind of experiment: cell-based. Format: cell-based. The following applies: EC50 (β1)/EC50 (β2).

Assay [2] relates to tracheal smooth muscle of guinea pig. Description: Relaxation of CCh-induced constriction of isolated guinea pig tracheal smooth muscle (Experimental Example 1). Conditions: for EC50: Cavia porcellus, read-out: EC50 (μM) ± SD. As for the experimental part: The upper end was connected with a muscle tension transducer, and the specimen was given a resting tension of 1.0 g. Muscle tension changes were recorded, nutrient solution was changed every 20 min, and the experiment was started after 60 min of equilibrium.
Administration Method: After the trachea flake were stabilized, 3×10^−6 mol/L CCh was added to the bath. […] Diastolic condition of the trachea flake was observed. If no response occurred (below the threshold concentration), the next dosage was continued to be added in the order. If any response occurred, the next dosage was added until its diastolic platform was reached. The above operation was repeated until the shrink curve reached the minimum. Finally, 10^−6 mol/L isoproterenol was added to establish maximum relaxation, and the curve was recorded.
Statistical Methods: Statistics was performed using the Sigma Stat statistical software package, the data was analyzed by using the variance analysis. Student-Newman-Keuls (SNK) test was used in comparison among multiple sample averages number. The statistical test level was α=0.05 (bilateral).

A word on the EC50: it is the concentration needed to bring the measured effect to its halfway point.

Where two headings read alike, the source gives them in different places.

T1 sequence (P07550 whole entry): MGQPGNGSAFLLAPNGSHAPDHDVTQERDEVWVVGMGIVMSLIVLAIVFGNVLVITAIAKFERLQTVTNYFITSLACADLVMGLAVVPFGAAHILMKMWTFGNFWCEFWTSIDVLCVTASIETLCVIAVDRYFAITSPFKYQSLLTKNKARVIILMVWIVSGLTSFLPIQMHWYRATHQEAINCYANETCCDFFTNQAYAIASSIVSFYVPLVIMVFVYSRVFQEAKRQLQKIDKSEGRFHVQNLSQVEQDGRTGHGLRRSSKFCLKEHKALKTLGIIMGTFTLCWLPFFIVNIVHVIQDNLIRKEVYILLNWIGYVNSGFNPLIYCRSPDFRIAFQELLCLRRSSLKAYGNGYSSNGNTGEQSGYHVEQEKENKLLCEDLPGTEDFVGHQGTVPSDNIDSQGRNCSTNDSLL

On to `O=c1ccc2c([C@@H](O)CNCCC[N+]34CCC(CC3)[C@@H](OC[C@@](O)(c3ccccc3)C3CCCC3)C4)ccc(O)c2[nH]1` [Compound 2, (R)-(−)-3-[(R)-2-hydroxy-2-cyclopentyl-2-phenyl]ethoxy-1-(3-{(R)-[2-hydroxy-2-(8-hydroxy-2-oxo-1,2-dihydroquinolin-5-yl)]ethylamino}propyl)-1-azabicyclo[2,2,2]octylonium bromide], for which the “sel (β1/β2)” value in assay [1] came to 7.8. Also, the “Time for eliminating inhibition effect (min)” value in assay [2] (CCh 3 × 10^−6 mol/L, in vitro) was “more than 300 min”. Moreover, the EC50 in assay [2] stood at 0.756 ± 0.26 µM.

As for `O=CNc1cc([C@@H](O)CNCCCC[N+]23CCC(CC2)[C@@H](OC[C@@](O)(c2ccccc2)C2CCCC2)C3)ccc1O` [Compound 4, (R)-(−)-3-[(R)-2-hydroxy-2-cyclopentyl-2-phenyl]ethoxy-1-(4-{(R)-[2-hydroxy-2-(3-formamido-4-hydroxy)phenyl]ethylamino}butyl-1-azabicyclo[2,2,2]octylonium bromide], the “sel (β1/β2)” value in assay [1] stood at 36.8. In addition, in assay [2] (CCh 3 × 10^−6 mol/L, in vitro), the “Onset time (min) ± SD” value is recorded as 6.23 ± 0.23 min and the “Time for eliminating inhibition effect (min)” value is reported as “more than 300 min”. The EC50 in assay [2] worked out at 0.0358 ± 0.011 µM.

Consider `O=CNc1cc([C@@H](O)CNCCCCOCC[N+]23CCC(CC2)[C@@H](OC[C@@](O)(c2ccccc2)C2CCCC2)C3)ccc1O` [Compound 25, (R)-(−)-3-[(R)-2-hydroxy-2-cyclopentyl-2-phenyl]ethoxy-1-[2-(4-{(R)-[2-hydroxy-2-(3-formamido-4-hydroxy)phenyl]ethylamino}butoxy)ethyl]-1-azabicyclo[2,2,2]octylonium bromide], for which the “sel (β1/β2)” value in assay [1] turned out to be 30.8. In assay [2] (CCh 3 × 10^−6 mol/L, in vitro), the “Onset time (min) ± SD” value amounted to 6.86 ± 0.22 min and the “Time for eliminating inhibition effect (min)” value is “more than 300 min”. Moreover, the EC50 in assay [2] stood at 0.822 ± 0.27 µM.

Turning to `O=C1COc2c(cc(O)cc2C(O)CNCCCCOCCCCC[N+]23CCC(CC2)C(OCC(O)(c2ccccc2)C2CCCC2)C3)N1` [Compound 26, (R)-(−)-3-[(R)-2-hydroxy-2-cyclopentyl-2-phenyl]ethoxy-1-[5-(4-{(R)-[2-hydroxy-2-(6-hydroxy-2H-1,4-benzoxazin-3(4H)-one-8-yl)]ethylamino}butoxy)pentyl]-1-azabicyclo[2,2,2]octylonium bromide], the “sel (β1/β2)” value in assay [1] is listed as 18.8. In addition, in assay [2] (CCh 3 × 10^−6 mol/L, in vitro), the “Onset time (min) ± SD” value is on record as 6.56 ± 0.65 min and the “Time for eliminating inhibition effect (min)” value is on record as “more than 300 min”. Also, the EC50 in assay [2] was 0.087 ± 0.021 µM.

Turning to `OCc1cc(C(O)CNCCCCOCCCC[N+]23CCC(CC2)C(OCC(O)(c2ccccc2)C2CCCC2)C3)ccc1O` [Compound 27, (R)-(−)-3-[(R)-2-hydroxy-2-cyclopentyl-2-phenyl]ethoxy-1-[4-(4-{(R)-[2-(3-hydroxymethyl-4-hydroxy)phenyl-2-hydroxy]ethylamino}butoxy)butyl-1-azabicyclo[2,2,2]octylonium bromide], the “sel (β1/β2)” value in assay [1] was determined as 78.9. In assay [2] (CCh 3 × 10^−6 mol/L, in vitro), the “Onset time (min) ± SD” value is given as 5.54 ± 0.43 min and the “Time for eliminating inhibition effect (min)” value was “more than 300 min”. The EC50 in assay [2] amounted to 0.152 ± 0.086 µM.

For the compound `OCc1cc(C(O)CNCCOCCOCCOCC[N+]23CCC(CC2)C(OCC(O)(c2ccccc2)C2CCCC2)C3)ccc1O` [Compound 45, (R)-(−)-3-[(R)-2-hydroxy-2-cyclopentyl-2-phenyl]ethoxy-1-(2-{2-[2-(2-{(R)-[2-(3-hydroxymethyl-4-hydroxy)phenyl-2-hydroxy]ethylamino}ethoxy)ethoxy]ethoxy}ethyl)-1-azabicyclo[2,2,2]octylonium bromide], the “sel (β1/β2)” value in assay [1] is 120.3. In assay [2] (CCh 3 × 10^−6 mol/L, in vitro), the “Onset time (min) ± SD” value came out at 6.39 ± 0.56 min and the “Time for eliminating inhibition effect (min)” value is reported as “more than 300 min”. In addition, in assay [2], the EC50 was 0.0278 ± 0.0091 µM.

As to `O=CNc1cc(C(O)CNCCOCCOCC[N+]23CCC(CC2)C(OCC(O)(c2ccccc2)C2CCCC2)C3)ccc1O` [Compound 46, (R)-(−)-3-[(R)-2-hydroxy-2-cyclopentyl-2-phenyl]ethoxy-1-{2-[2-(2-{(R)-[2-hydroxy-2-(3-formamido-4-hydroxy)phenyl]ethylamino}ethoxy)ethoxy]ethyl}-1-azabicyclo[2,2,2]octylonium chloride], the “sel (β1/β2)” value in assay [1] was 68.9. Further, in assay [2] (CCh 3 × 10^−6 mol/L, in vitro), the “Onset time (min) ± SD” value amounted to 6.75 ± 0.33 min and the “Time for eliminating inhibition effect (min)” value is reported as “more than 300 min”. In addition, the EC50 in assay [2] amounted to 0.136 ± 0.068 µM.

Take `O=c1ccc2c([C@@H](O)CNCCOCCOCC[N+]34CCC(CC3)[C@@H](OC[C@@](O)(c3ccccc3)C3CCCC3)C4)ccc(O)c2[nH]1.[Cl-]` [Compound 50]: the “sel (β1/β2)” value in assay [1] was determined as 56.9. Further, in assay [2] (CCh 3 × 10^−6 mol/L, in vitro), the “Onset time (min) ± SD” value was 6.76 ± 0.32 min and the “Time for eliminating inhibition effect (min)” value is “more than 300 min”. For the same compound, the EC50 in assay [2] is 0.0135 ± 0.0092 µM.

Consider `OCc1cc([C@@H](O)CNCCc2ccc(OCC[N+]34CCC(CC3)[C@@H](OC[C@@](O)(c3ccccc3)C3CCCC3)C4)cc2)ccc1O` [Compound 57, (R)-(−)-3-[(R)-2-hydroxy-2-cyclopentyl-2-phenyl)]ethoxy-1-{2-[4-(2-{[(R)-[2-(3-hydroxymethyl-4-hydroxy)phenyl-2-hydroxy]ethylamino}ethyl)phenoxy]ethyl}-1-azabicyclo[2,2,2]octylonium bromide], for which, in assay [1], the “sel (β1/β2)” value is 68.8. Further, in assay [2] (CCh 3 × 10^−6 mol/L, in vitro), the “Onset time (min) ± SD” value came to 6.03 ± 0.18 min and the “Time for eliminating inhibition effect (min)” value is given as “more than 300 min”. Moreover, the EC50 in assay [2] amounted to 0.0265 ± 0.016 µM.

`O=c1ccc2c([C@@H](O)CNCc3ccc(OCCC[N+]45CCC(CC4)[C@@H](OC[C@@](O)(c4ccccc4)C4CCCC4)C5)cc3)ccc(O)c2[nH]1` [Compound 58, (R)-(−)-3-[(R)-2-hydroxy-2-cyclopentyl-2-phenyl]ethoxy-1-{3-[4-(1-{(R)-[2-hydroxy-2-(8-hydroxy-2-oxo-1,2-dihydroquinolin-5-yl)]ethylamino}methyl)phenoxy]propyl}-1-azabicyclo[2,2,2]octylonium bromide]: the “sel (β1/β2)” value in assay [1] turned out to be 89.8. Besides, in assay [2] (CCh 3 × 10^−6 mol/L, in vitro), the “Onset time (min) ± SD” value is reported as 5.56 ± 0.24 min and the “Time for eliminating inhibition effect (min)” value is recorded as “more than 300 min”. The EC50 in assay [2] was found to be 0.0131 ± 0.0088 µM.

In the case of `CC(C)(Cc1ccc(OCC[N+]23CCC(CC2)[C@@H](OC[C@@](O)(c2ccccc2)C2CCCC2)C3)cc1)NC[C@H](O)c1cc(O)cc2c1OCC(=O)N2` [Compound 60, (R)-(−)-3-[(R)-2-hydroxy-2-cyclopentyl-2-phenyl]ethoxy-1-{2-[4-(2-{(R)[-2-hydroxy-2-(6-hydroxy-2H-1,4-benzoxazin-3(4H)-one-8-yl)]ethylamino}isobutyl)phenoxy]ethyl}-1-azabicyclo[2,2,2]octylonium bromide], the “sel (β1/β2)” value in assay [1] is reported as 12.3. Further, in assay [2] (CCh 3 × 10^−6 mol/L, in vitro), the “Onset time (min) ± SD” value came to 6.59 ± 0.43 min and the “Time for eliminating inhibition effect (min)” value is “more than 300 min”. In addition, in assay [2], the EC50 turned out to be 0.0523 ± 0.018 µM.

With `CC(C)[N+]1(C)[C@@H]2CC[C@H]1C[C@@H](OC(=O)C(CO)c1ccccc1)C2` (some centres unmarked) [Ipratropium bromide, ipratropium bromide, reference compound], in assay [2] (CCh 3 × 10^−6 mol/L, in vitro), the “Onset time (min) ± SD” value came to 6.82 ± 0.28 min and the “Time for eliminating inhibition effect” value was found to be 185 min. Moreover, the “Time for eliminating inhibition effect (min)” value in assay [2] (CCh 3 × 10^−6 mol/L, in vitro, listed as ipratropium bromide) is listed as “short duration of action”. Besides, the EC50 in assay [2] (constriction induced by CCh 3 × 10^−6 mol/L, in vitro) was found to be 0.0361 ± 0.0046 µM.

The record behind these values is patent publication US11447485B2, “Class of bifunctional compounds with quanternary ammonium salt structure” (Beijing Showby Pharmaceutical Co., Ltd., priority 2016, dated 2022).
